# Assay results published in article doi:10.1101/2025.07.09.663820v1 (biorxiv, 2025).
# Changes are numbered by the printed parent chain.
# Columns and labels:
# Test in all cases: isothermal titration calorimetry
# Assay type in all cases: binding
# [1] = molecular target: T1, LYR4 (Medicago truncatula, UniProt G7K7K0); details: ectodomain
# T1 sequence (G7K7K0 24-242): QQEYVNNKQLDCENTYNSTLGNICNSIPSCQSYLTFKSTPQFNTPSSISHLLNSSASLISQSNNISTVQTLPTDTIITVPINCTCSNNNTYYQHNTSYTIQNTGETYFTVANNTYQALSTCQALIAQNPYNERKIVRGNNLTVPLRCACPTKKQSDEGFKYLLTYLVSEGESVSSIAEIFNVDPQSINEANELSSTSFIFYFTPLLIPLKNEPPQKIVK
# [2] = molecular target: T2, CERK6 (Lotus japonicus, UniProt D3KTZ6); details: read-out: affinity; ectodomain; crystal structure: CO5 in LysM1 and LysM2
# T2 sequence (D3KTZ6 26-223): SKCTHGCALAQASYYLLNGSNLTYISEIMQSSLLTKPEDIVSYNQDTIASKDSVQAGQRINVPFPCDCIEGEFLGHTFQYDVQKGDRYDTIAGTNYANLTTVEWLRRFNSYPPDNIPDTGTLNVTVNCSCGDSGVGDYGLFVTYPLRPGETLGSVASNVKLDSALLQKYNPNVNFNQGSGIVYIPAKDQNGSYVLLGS
# [3] = molecular target: T3, CHIP13 (Lotus japonicus, UniProt D3KU00); details: ectodomain
# T3 sequence (D3KU00 33-253): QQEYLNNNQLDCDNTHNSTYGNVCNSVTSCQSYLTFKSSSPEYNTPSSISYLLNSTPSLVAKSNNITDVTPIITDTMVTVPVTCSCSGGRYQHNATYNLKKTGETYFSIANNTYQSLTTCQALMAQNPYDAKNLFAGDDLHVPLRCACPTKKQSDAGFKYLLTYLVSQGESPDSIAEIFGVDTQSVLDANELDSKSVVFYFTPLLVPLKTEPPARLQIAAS
# [4] = molecular target: T4, MtCERK1 (Medicago truncatula, UniProt G7J6P5); details: read-out: affinity; ectodomain
# T4 sequence (G7J6P5 30-232): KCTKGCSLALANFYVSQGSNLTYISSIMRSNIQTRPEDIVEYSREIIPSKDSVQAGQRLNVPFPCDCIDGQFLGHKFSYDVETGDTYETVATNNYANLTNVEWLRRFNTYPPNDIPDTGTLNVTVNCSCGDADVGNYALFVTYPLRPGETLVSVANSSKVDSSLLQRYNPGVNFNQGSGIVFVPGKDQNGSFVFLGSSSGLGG
# [5] = molecular target: T5, CHIP13 (Lotus japonicus, UniProt D3KU00, Y232A/F233A); details: ectodomain variant
# T5 sequence (D3KU00 33-253 Y232A/F233A): T3 sequence (D3KU00 33-253) with Y200A, F201A
SMILES,Kd [1],Kd [2],Kd [3],Kd [4],Kd [5],"Kd ([3]; crystal structure at 1.35 Å: LysM2, LysM3 and bridge domain site)"
"CC(=O)N[C@H]1[C@H](O[C@H]2[C@H](O)[C@@H](NC(C)=O)[C@H](O[C@H]3[C@H](O)[C@@H](NC(C)=O)C(O)O[C@@H]3CO)O[C@@H]2CO)O[C@H](CO)[C@@H](O[C@@H]2O[C@H](CO)[C@@H](O[C@@H]3O[C@H](CO)[C@@H](O)[C@H](O)[C@H]3NC(C)=O)[C@H](O)[C@H]2NC(C)=O)[C@@H]1O (stereo partly shown) [CO5, penta-N-acetyl-chitopentaose]",96 µM,2800 µM,1270 µM,729 µM,,
"CC(=O)N[C@H]1[C@H](O[C@H]2[C@H](O)[C@@H](NC(C)=O)[C@H](O[C@H]3[C@H](O)[C@@H](NC(C)=O)[C@H](O[C@H]4[C@H](O)[C@@H](NC(C)=O)C(O)O[C@@H]4CO)O[C@@H]3CO)O[C@@H]2CO)O[C@H](CO)[C@@H](O[C@@H]2O[C@H](CO)[C@@H](O[C@@H]3O[C@H](CO)[C@@H](O[C@@H]4O[C@H](CO)[C@@H](O[C@@H]5O[C@H](CO)[C@@H](O)[C@H](O)[C@H]5NC(C)=O)[C@H](O)[C@H]4NC(C)=O)[C@H](O)[C@H]3NC(C)=O)[C@H](O)[C@H]2NC(C)=O)[C@@H]1O (stereo partly shown) [CO8, octa-N-acetyl-chitooctaose]",1.92 µM,,,,107 ± 80 µM,0.9 µM
